Experiments:
Format in all cases: in vivo
Abutilon theophrasti [1] = experiment: Pre-emergence herbicidal action against ABUTH; details: visual score after 3 weeks vs untreated controls
How it was run: (§1)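 Greenhouse pots of sandy loam held seeds covered with soil, onto which the compound was applied before emergence. An aqueous suspension or emulsion of WP or EC was used at 600 to 800 l/ha with 0.2% wetting agent. Percent damage was judged visually at 3 weeks.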

Alopecurus myosuroides [2] = experiment: Pre-emergence herbicidal action against ALOMY; details: visual score after 3 weeks vs untreated controls
How it was run: as §1

Amaranthus retroflexus [3] = experiment: Pre-emergence herbicidal action against AMARE; details: visual score after 3 weeks vs untreated controls
How it was run: as §1

Avena fatua [4] = experiment: Pre-emergence herbicidal action against AVEFA; details: visual score after 3 weeks vs untreated controls
How it was run: as §1

Cyperus esculentus [5] = experiment: Pre-emergence herbicidal action against CYPES; details: visual score after 3 weeks vs untreated controls
How it was run: as §1

Echinochloa crus-galli [6] = experiment: Pre-emergence herbicidal action against ECHCG; details: visual score after 3 weeks vs untreated controls
How it was run: as §1

Matricaria inodora [7] = experiment: Pre-emergence herbicidal action against MATIN; details: visual score after 3 weeks vs untreated controls
How it was run: as §1

Pharbitis purpurea [8] = experiment: Pre-emergence herbicidal action against PHBPU; details: visual score after 3 weeks vs untreated controls
How it was run: as §1

Hordeum murinum [9] = experiment: Pre-emergence herbicidal action against HORMU; details: visual score after 3 weeks vs untreated controls
How it was run: as §1

Lolium rigidum [10] = experiment: Pre-emergence herbicidal action against LOLRI; details: 320 g/ha
How it was run: as §1

Polygonum convolvulus [11] = experiment: Pre-emergence herbicidal action against POLCO; details: 320 g/ha
How it was run: as §1

Setaria viridis [12] = experiment: Pre-emergence herbicidal action against SETVI
How it was run: as §1

Stellaria media [13] = experiment: Pre-emergence herbicidal action against STEME
How it was run: as §1

Veronica persica [14] = experiment: Pre-emergence herbicidal action against VERPE; details: 320 g/ha
How it was run: as §1

Viola tricolor [15] = experiment: Pre-emergence herbicidal action against VIOTR
How it was run: as §1

Abutilon theophrasti [16] = experiment: Post-emergence herbicidal action against ABUTH
How it was run: (§2)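 A WP or EC formulation diluted in water with 0.2% wetting agent was sprayed at 600 to 800 l/ha onto one-leaf-stage plants grown in sandy loam. About 3 weeks later, action was rated visually in percent, 100% being dead plants.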

Alopecurus myosuroides [17] = experiment: Post-emergence herbicidal action against ALOMY
How it was run: as §2

Amaranthus retroflexus [18] = experiment: Post-emergence herbicidal action against AMARE; details: visual assessment about 3 weeks after treatment
How it was run: as §2

Avena fatua [19] = experiment: Post-emergence herbicidal action against AVEFA; details: visual assessment about 3 weeks after treatment
How it was run: as §2

Cyperus esculentus [20] = experiment: Post-emergence herbicidal action against CYPES; details: 80 g/ha, visual assessment about 3 weeks after treatment
How it was run: as §2

Echinochloa crus-galli [21] = experiment: Post-emergence herbicidal action against ECHCG; details: visual assessment about 3 weeks after treatment
How it was run: as §2

Matricaria inodora [22] = experiment: Post-emergence herbicidal action against MATIN; details: visual assessment about 3 weeks after treatment
How it was run: as §2

Pharbitis purpurea [23] = experiment: Post-emergence herbicidal action against PHBPU; details: visual assessment about 3 weeks after treatment
How it was run: as §2

Hordeum murinum [24] = experiment: Post-emergence herbicidal action against HORMU
How it was run: as §2

Lolium rigidum [25] = experiment: Post-emergence herbicidal action against LOLRI
How it was run: as §2

Polygonum convolvulus [26] = experiment: Post-emergence herbicidal action against POLCO; details: 80 g/ha, visual assessment about 3 weeks after treatment
How it was run: as §2

Setaria viridis [27] = experiment: Post-emergence herbicidal action against SETVI; details: visual assessment about 3 weeks after treatment
How it was run: as §2

Stellaria media [28] = experiment: Post-emergence herbicidal action against STEME; details: visual assessment about 3 weeks after treatment
How it was run: as §2

Veronica persica [29] = experiment: Post-emergence herbicidal action against VERPE; details: 80 g/ha, visual assessment about 3 weeks after treatment
How it was run: as §2

Viola tricolor [30] = experiment: Post-emergence herbicidal action against VIOTR
How it was run: as §2

In the case of `CCN(C)C(=O)c1c(C(F)(F)F)ccc(C(=O)Nc2nnnn2CC)c1Cl` [Example 2-124], the “Pre-emergence action against ABUTH” value (Abutilon theophrasti [1]; 20 g/ha) was 100%, the “Pre-emergence action against ABUTH” value (Abutilon theophrasti [1]; 80 g/ha) was 100% and the “Pre-emergence action against ABUTH” value (Abutilon theophrasti [1]; Dosage column 320 g/ha (heading prints 3200 g/ha)) was 100%. The “Pre-emergence action against ALOMY” value (Alopecurus myosuroides [2]; 80 g/ha) was 80%, the “Pre-emergence action against ALOMY” value (Alopecurus myosuroides [2]; 320 g/ha) was 90% and the “Pre-emergence action against AMARE” value (Amaranthus retroflexus [3]; 20 g/ha) was 90%. For the same compound, the “Pre-emergence action against AMARE” value (Amaranthus retroflexus [3]; 80 g/ha) was 100%, the “Pre-emergence action against AMARE” value (Amaranthus retroflexus [3]; 320 g/ha) was 100% and the “Pre-emergence action against AVEFA” value (Avena fatua [4]; 80 g/ha) was 90%. The “Pre-emergence action against AVEFA” value (Avena fatua [4]; 320 g/ha) was 100%, the “Pre-emergence action against CYPES” value (Cyperus esculentus [5]; 20 g/ha) was 100% and the “Pre-emergence action against CYPES” value (Cyperus esculentus [5]; 80 g/ha) was 100%. The “Pre-emergence action against CYPES” value (Cyperus esculentus [5]; 320 g/ha) was 100%, the “Pre-emergence action against ECHCG” value (Echinochloa crus-galli [6]; 80 g/ha) was 90% and the “Pre-emergence action against ECHCG” value (Echinochloa crus-galli [6]; 320 g/ha) was 100%. The “Pre-emergence action against MATIN” value (Matricaria inodora [7]; 20 g/ha) was 80%, the “Pre-emergence action against MATIN” value (Matricaria inodora [7]; 80 g/ha) was 90% and the “Pre-emergence action against MATIN” value (Matricaria inodora [7]; 320 g/ha) was 100%. For the same compound, the “Pre-emergence action against PHBPU” value (Pharbitis purpurea [8]; 80 g/ha) was 80%, the “Pre-emergence action against PHBPU” value (Pharbitis purpurea [8]; 320 g/ha) was 90% and the “Pre-emergence action against HORMU” value (Hordeum murinum [9]; 80 g/ha) was 80%. For the same compound, the “Pre-emergence action against HORMU” value (Hordeum murinum [9]; 320 g/ha) was 90%, the “Pre-emergence action against LOLRI” value (Lolium rigidum [10]) was 90% and the “Pre-emergence action against POLCO” value (Polygonum convolvulus [11]) was 80%. For the same compound, the “Pre-emergence action against SETVI” value (Setaria viridis [12]; 20 g/ha) was 90%, the “Pre-emergence action against SETVI” value (Setaria viridis [12]; 80 g/ha) was 100% and the “Pre-emergence action against SETVI” value (Setaria viridis [12]; 320 g/ha) was 100%. The “Pre-emergence action against STEME” value (Stellaria media [13]; 20 g/ha) was 90%, the “Pre-emergence action against STEME” value (Stellaria media [13]; 80 g/ha) was 90% and the “Pre-emergence action against STEME” value (Stellaria media [13]; 320 g/ha) was 90%. For the same compound, the “Pre-emergence action against VERPE” value (Veronica persica [14]) was 100%, the “Pre-emergence action against VIOTR” value (Viola tricolor [15]; 20 g/ha) was 80% and the “Pre-emergence action against VIOTR” value (Viola tricolor [15]; 80 g/ha) was 80%. The “Pre-emergence action against VIOTR” value (Viola tricolor [15]; 320 g/ha) was 100%, the “Post-emergence action against ABUTH” value (Abutilon theophrasti [16]; 5 g/ha) was 100% and the “Post-emergence action against ABUTH” value (Abutilon theophrasti [16]; 20 g/ha) was 100%. For the same compound, the “Post-emergence action against ABUTH” value (Abutilon theophrasti [16]; 80 g/ha) was 100%, the “Post-emergence action against ALOMY” value (Alopecurus myosuroides [17]; 5 g/ha) was 90% and the “Post-emergence action against ALOMY” value (Alopecurus myosuroides [17]; 20 g/ha) was 100%. For the same compound, the “Post-emergence action against ALOMY” value (Alopecurus myosuroides [17]; 80 g/ha) was 100%, the “Post-emergence action against AMARE in %” value (Amaranthus retroflexus [18]; 5 g/ha) was 100% and the “Post-emergence action against AMARE in %” value (Amaranthus retroflexus [18]; 20 g/ha) was 100%. For the same compound, the “Post-emergence action against AMARE in %” value (Amaranthus retroflexus [18]; 80 g/ha) was 100%, the “Post-emergence action against AVEFA in %” value (Avena fatua [19]; 5 g/ha) was 80% and the “Post-emergence action against AVEFA in %” value (Avena fatua [19]; 20 g/ha) was 100%. For the same compound, the “Post-emergence action against AVEFA in %” value (Avena fatua [19]; 80 g/ha) was 100%, the “Post-emergence action against CYPES in %” value (Cyperus esculentus [20]) was 90% and the “Post-emergence action against ECHCG in %” value (Echinochloa crus-galli [21]; 20 g/ha) was 100%. The “Post-emergence action against ECHCG in %” value (Echinochloa crus-galli [21]; 80 g/ha) was 100%, the “Post-emergence action against MATIN in %” value (Matricaria inodora [22]; 5 g/ha) was 90% and the “Post-emergence action against MATIN in %” value (Matricaria inodora [22]; 20 g/ha) was 100%. For the same compound, the “Post-emergence action against MATIN in %” value (Matricaria inodora [22]; 80 g/ha) was 100%, the “Post-emergence action against PHBPU in %” value (Pharbitis purpurea [23]; 5 g/ha) was 80% and the “Post-emergence action against PHBPU in %” value (Pharbitis purpurea [23]; 20 g/ha) was 90%. For the same compound, the “Post-emergence action against PHBPU in %” value (Pharbitis purpurea [23]; 80 g/ha) was 90%, the “Post-emergence action against HORMU in %” value (Hordeum murinum [24]; 20 g/ha) was 90% and the “Post-emergence action against HORMU in %” value (Hordeum murinum [24]; 80 g/ha) was 100%. The “Post-emergence action against LOLRI in %” value (Lolium rigidum [25]; 20 g/ha) was 90%, the “Post-emergence action against LOLRI in %” value (Lolium rigidum [25]; 80 g/ha) was 100% and the “Post-emergence action against POLCO in %” value (Polygonum convolvulus [26]) was 100%. For the same compound, the “Post-emergence action against SETVI in %” value (Setaria viridis [27]; 5 g/ha) was 100%, the “Post-emergence action against SETVI in %” value (Setaria viridis [27]; 20 g/ha) was 100% and the “Post-emergence action against SETVI in %” value (Setaria viridis [27]; 80 g/ha) was 100%. The “Post-emergence action against STEME in %” value (Stellaria media [28]; 5 g/ha) was 100%, the “Post-emergence action against STEME in %” value (Stellaria media [28]; 20 g/ha) was 100% and the “Post-emergence action against STEME in %” value (Stellaria media [28]; 80 g/ha) was 100%. For the same compound, the “Post-emergence action against VERPE in %” value (Veronica persica [29]) was 100%, the “Post-emergence action against VIOTR in %” value (Viola tricolor [30]; 5 g/ha) was 100% and the “Post-emergence action against VIOTR in %” value (Viola tricolor [30]; 20 g/ha) was 100%. The “Post-emergence action against VIOTR in %” value (Viola tricolor [30]; 80 g/ha) was 100%.

From patent US12599136B2, “Substituted isophthalic acid diamides and their use as herbicides” (Bayer Aktiengesellschaft, priority 2020, dated 2026)
